In US11541033B2, “Agent for preventing or treating Alzheimer's disease” (FUJIFILM Toyama Chemical Co., Ltd., priority 2017, dated 2023):

Tests used:
[1] = system: mild to moderate AD patients; experiment: Test Example 1: phase II placebo-controlled trial, ADAS-cog change from baseline; format: in vivo, human
From the text: (§1) Test Example 1 Multicenter Randomized Double-Blind Phase II Placebo-Controlled Trial for Assessing Effectiveness and Safety of Compound a in Mild to Moderate AD Patients
(§2) Patients were screened in a period from 42 days before treatment assignment to the assignment based on the following selection criteria. Patients matched (484 patients) were randomly divided into the following 3 groups and the trial was started.
(§3) • Patients who were probable AD and are 55 years old or older and 85 years old or younger at the time of obtaining consent of screening. • Patients with an MMSE score of 12 to 22 at the time of screening • Patients with a Modified Hachinski Ischemia Scale score of 4 or less • Patients who have been treated with a donepezil hydrochloride or rivastigmine transdermal system for at least 4 months before the baseline and with a stable dose thereof for 3 months before the baseline. • In the case of patients who have received memantine in addition to being treated with a donepezil hydrochloride or rivastigmine transdermal system, patients who have been treated with memantine for at least 4 months before the baseline and with a stable dose thereof for 3 months before the baseline. • Patients whose brain MRI or CT results match AD at the time of screening Organization of Groups: (1) High dose group: 224 mg of a test compound (160 mg in terms of Compound A) was orally administered once a day for 4 weeks and then 448 mg of a test compound (320 mg in terms of Compound A) was orally administered once a day for 48 weeks (158 patients) (2) Low dose group: 224 mg of a test compound (160 mg in terms of Compound A) was orally administered once a day for 52 weeks (166 patients) (3) Placebo group: placebo was orally administered once a day for 52 weeks (158 patients) Method of assessment: (1) ADAS-cog
The ADAS-cog score of the subject was evaluated at the baseline (before administration of investigational drug on the first day of administration) and after 52 weeks and the cognitive function was assessed based on the change from the baseline.
(§4) Changes in the ADAS-cog score and the ADCS-ADL score after 52 weeks from the baseline were compared between the high dose group and the placebo group, and between the low dose group and the placebo group based on the Mixed-effect Models for Repeated Measures (MMRM) with a significance level of 5%. For models, fixed effects included the treatment groups and time, while covariates included age, the baseline of ADAS-cog or ADCS-ADL, the baseline of MMSE and ApoE4 genotype (positive/negative). The interaction between time and the treatment groups and the interaction between the baseline of ADAS-cog and time were also included.

[2] = system: mild to moderate AD patients; experiment: Test Example 1: phase II placebo-controlled trial, ADCS-ADL change from baseline; format: in vivo, human
From the text: as §1, §2, §3
The ADCS-ADL score of the subject was evaluated at the baseline (before administration of investigational drug on the first day of administration) and after 52 weeks and the level of impairment was assessed based on the change from the baseline.
as §4

[3] = high dose group, within 3.6 years from clinical diagnosis
[4] = high dose group, within 3.8 years from clinical diagnosis
[5] = high dose group, within 4.0 years from clinical diagnosis
[6] = high dose group, within 5.0 years from clinical diagnosis
[7] = high dose group, within 6.0 years from clinical diagnosis
[8] = low dose group (160 mg in terms of Compound A, oral once a day, 52 weeks), within 2.6 years from clinical diagnosis
[9] = low dose group (160 mg), more than 2.6 years from clinical diagnosis
[10] = low dose group (160 mg), total (all periods from clinical diagnosis)
[11] = low dose group (160 mg), within 2.6 years from clinical diagnosis
[12] = high dose group, more than 2.6 years from clinical diagnosis
[13] = high dose group, total (all periods from clinical diagnosis)

Structure (SMILES): OC1CN(CCCOCCc2ccc3sccc3c2)C1 [Compound A, 1-(3-(2-(1-benzothiophen-5-yl)ethoxy)propyl)azetidin-3-ol]
- Change in ADAS-cog from baseline at week 52, least square means (95% confidence interval) ([1]; high dose group, within 3.4 years from clinical diagnosis): 6.4
- Change in ADAS-cog from baseline at week 52, difference from placebo group (95% confidence interval) [1, 3]: −1.8
- Change in ADAS-cog from baseline at week 52, least square means (95% confidence interval) [1, 3]: 6.7
- Change in ADAS-cog from baseline at week 52, difference from placebo group (95% confidence interval) [1, 4]: −2.1
- Change in ADAS-cog from baseline at week 52, least square means (95% confidence interval) [1, 4]: 6.5
- Change in ADAS-cog from baseline at week 52, difference from placebo group (95% confidence interval) [1, 5]: −1.7
- Change in ADAS-cog from baseline at week 52, least square means (95% confidence interval) [1, 5]: 6.6
- Change in ADAS-cog from baseline at week 52, difference from placebo group (95% confidence interval) [1, 6]: −1.9
- Change in ADAS-cog from baseline at week 52, least square means (95% confidence interval) [1, 6]: 6.5
- Change in ADAS-cog from baseline at week 52, difference from placebo group (95% confidence interval) [1, 7]: −0.9
- Change in ADAS-cog from baseline at week 52, least square means (95% confidence interval) [1, 7]: 7.2
- Change in ADAS-cog from baseline at week 52, least square means (95% confidence interval) [1, 8]: 8.1 (6.0, 10.2)
- Change in ADAS-cog from baseline at week 52, difference from placebo group (95% confidence interval) [1, 9]: 0.1 (−2.5, 2.8)
- Change in ADAS-cog from baseline at week 52, least square means (95% confidence interval) [1, 9]: 6.8 (4.8, 8.7)
- Change in ADAS-cog from baseline at week 52, difference from placebo group (95% confidence interval) [1, 10]: −0.5 (−2.4, 1.4)
- Change in ADAS-cog from baseline at week 52, least square means (95% confidence interval) [1, 10]: 7.4 (6.0, 8.9)
- Change in ADAS-cog from baseline at week 52, difference from placebo group (95% confidence interval) [1, 11]: −0.9 (−3.6, 1.8)
- Reduction in ADCS-ADL from the baseline at week 52 (in words) ([2]; Test Example 1, high dose group): tended to be suppressed
- Tendency to suppress reduction in ADCS-ADL, patients within 2.6 years versus all patients (in words) ([2]; Test Example 1, high dose group, week 52): more remarkable
- Change in ADCS-ADL from baseline at week 52, least square means (95% confidence interval) ([2]; high dose group (160 mg 4 weeks then 320 mg 48 weeks, oral once a day), within 2.6 years from clinical diagnosis): −8.6(−11.2, −5.9)
- Change in ADCS-ADL from baseline at week 52, difference from placebo group (95% confidence interval) [2, 12]: −0.9 (−4.7, 2.8)
- Change in ADCS-ADL from baseline at week 52, least square means (95% confidence interval) [2, 12]: −11.6(−14.5, −8.8)
- Change in ADCS-ADL from baseline at week 52, difference from placebo group (95% confidence interval) [2, 13]: 1.2(−1.3, 3.8)
- Change in ADCS-ADL from baseline at week 52, least square means (95% confidence interval) [2, 13]: −10.1(−12.0, −8.1)
- Change in ADCS-ADL from baseline at week 52, difference from placebo group (95% confidence interval) ([2]; high dose group, within 2.6 years from clinical diagnosis): 3.1(−0.4, 6.6)
- Change in ADCS-ADL from baseline at week 52, least square means (95% confidence interval) [2, 8]: −11.7(−14.5, −9.0)
- Change in ADCS-ADL from baseline at week 52, difference from placebo group (95% confidence interval) [2, 9]: 0.3(−3.2, 3.8)
- Change in ADCS-ADL from baseline at week 52, least square means (95% confidence interval) [2, 9]: −10.4(−13.0, −7.8)
- Change in ADCS-ADL from baseline at week 52, difference from placebo group (95% confidence interval) [2, 10]: 0.2(−2.3, 2.7)
- Change in ADCS-ADL from baseline at week 52, least square means (95% confidence interval) [2, 10]: −11.0(−13.0, −9.1)
- Change in ADCS-ADL from baseline at week 52, difference from placebo group (95% confidence interval) [2, 11]: 0.0(−3.6, 3.6)
